In the CheMixHub ionic liquid set:

Assay: xn = mol fraction of the nth substance listed
Settings: 101 kPa

CC[n+]1ccn(C)c1.O=C([O-])C(F)(F)F + O
Settings	electrical conductivity, 298.15 K [S/m]	electrical conductivity, 313.15 K [S/m]	viscosity, 293.15 K [mPa·s]	viscosity, 298.15 K [mPa·s]	viscosity, 303.15 K [mPa·s]	viscosity, 313.15 K [mPa·s]
x1 = 0.001	0.3	0.41	1.01	0.9	0.8	0.66
x1 = 0.003	0.79	1.1	1.05	0.93	0.84	0.69
x1 = 0.004	1.2	1.6	1.1	0.98	0.87	0.72
x1 = 0.006	1.6	2.2	1.16	1.03	0.92	0.75
x1 = 0.009	2	2.5	1.24	1.1	0.98	0.81
x1 = 0.014	2.6	3.7	1.4	1.25	1.12	0.92
x1 = 0.02	3.1	4.4	1.57	1.4	1.2	0.97
x1 = 0.033	4	5.6	2.01	1.75	1.54	1.21
x1 = 0.051	4.4	6.6	2.53	2.2	1.92	1.5
x1 = 0.065	4.6	6.9	3	2.58	2.24	1.74
x1 = 0.108	4.5	6.9	4.39	3.76	3.25	2.49
x1 = 0.159	4.2	6.3	6.17	5.28	4.55	3.46
x1 = 0.243	3.5	5.3	8.98	7.65	6.56	4.96
x1 = 0.406	2.5	3.7	–	–	–	–
x1 = 0.418	–	–	14.4	12.3	10.6	8
x1 = 0.502	2.2	3.4	17.3	14.8	12.6	9.5
x1 = 0.53	2	3.1	18.7	15.9	13.6	10.2
x1 = 0.759	1.5	2.3	26.8	22.7	19.3	14.3
x1 = 1	1	1.6	39.5	32.9	27.5	19.9
